Reference: patent publication US6737383B1, “Herbicidal oxadiazolidines” (priority 1999, dated 2004)

Assays:
crabgrass = experiment: Test B pre/postemergence crabgrass; assay type: in vivo, Digitaria sanguinalis; settings: for Crabgrass plant response rating: scale of 0 to 10 where 0 is no effect and 10 is complete control
Summary of the method: (§1)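 Test chemicals in a non-phytotoxic solvent mixture with surfactant were sprayed preemergence onto planted seeds and postemergence onto plants 2 to 18 cm tall (1- to 4-leaf stage). After twelve to sixteen days in a greenhouse, injury was visually rated against untreated controls from 0 (no effect) to 10 (complete control).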

cocklebur = experiment: Test B pre/postemergence cocklebur; assay type: in vivo, Xanthium strumarium; settings: for Cocklebur plant response rating: scale of 0 to 10 where 0 is no effect and 10 is complete control
Summary of the method: as §1

velvetleaf = experiment: Test B pre/postemergence velvetleaf; assay type: in vivo, Abutilon theophrasti; settings: for Velvetleaf plant response rating: scale of 0 to 10 where 0 is no effect and 10 is complete control
Summary of the method: as §1

pigweed = experiment: Test B pre/postemergence pigweed; assay type: in vivo, Amaranthus retroflexus; settings: for Redroot pigweed plant response rating: scale of 0 to 10 where 0 is no effect and 10 is complete control
Summary of the method: as §1

bedstraw = experiment: Test B pre/postemergence bedstraw; assay type: in vivo, Galium aparine; settings: Preemergence; for Bedstraw plant response rating: scale of 0 to 10 where 0 is no effect and 10 is complete control
Summary of the method: as §1

soybean = experiment: Test B pre/postemergence soybean; assay type: in vivo, Glycine max; settings: for Soybean plant response rating: scale of 0 to 10 where 0 is no effect and 10 is complete control
Summary of the method: as §1

rice = experiment: Test B flood test rice; assay type: in vivo, Oryza sativa
Summary of the method: (§2)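 Each value is a visual injury score relative to controls, with 10 meaning complete control and 0 no effect. Evaluation took place twelve to sixteen days after the 2-leaf-stage plants were treated and kept in the greenhouse.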

wheat = experiment: Test B pre/postemergence wheat; assay type: in vivo, Triticum aestivum; settings: for Wheat plant response rating: scale of 0 to 10 where 0 is no effect and 10 is complete control
Summary of the method: as §1

morningglory = experiment: Test B pre/postemergence morningglory; assay type: in vivo, Ipomoea hederacea; settings: for Morningglory plant response rating: scale of 0 to 10 where 0 is no effect and 10 is complete control
Summary of the method: as §1

surinam grass = experiment: Test B pre/postemergence surinam grass; assay type: in vivo, Brachiaria decumbens
Summary of the method: as §1

giant foxtail = experiment: Test B pre/postemergence giant foxtail; assay type: in vivo, Setaria faberii; settings: for Giant foxtail plant response rating: scale of 0 to 10 where 0 is no effect and 10 is complete control
Summary of the method: as §1

wild oat = experiment: Test B pre/postemergence wild oat; assay type: in vivo, Avena fatua; settings: for Wild oats plant response rating: scale of 0 to 10 where 0 is no effect and 10 is complete control
Summary of the method: as §1

corn = experiment: Test B pre/postemergence corn; assay type: in vivo, Zea mays; settings: for Corn plant response rating: scale of 0 to 10 where 0 is no effect and 10 is complete control
Summary of the method: as §1

bamyardgrass = experiment: Test B flood test barnyardgrass; assay type: in vivo, Echinochloa crus-galli
Summary of the method: as §2

blackgrass = experiment: Test B pre/postemergence blackgrass; assay type: in vivo, Alopecurus myosuroides
Summary of the method: as §1

smallflower flatsedge = experiment: Test B flood test smallflower flatsedge; assay type: in vivo, Cyperus difformis
Summary of the method: as §2

[1] = Postemergence, Rate 125 g/ha, scale 0 to 10, 0 is no effect, 10 is complete control
[2] = Preemergence, Rate 62 g/ha, scale 0 to 10 (0 no effect, 10 complete control)
[3] = Rate 500 g/ha, Postemergence, scale 0 to 10, 0 no effect, 10 complete control
[4] = Postemergence (flood test), Rate 125 g/ha, scale 0 to 10, 0 is no effect, 10 is complete control
[5] = Rate 62 g/ha, Postemergence (flood test species), scale of 0 to 10 where 0 is no effect and 10 is complete control
[6] = Rate 62 g/ha, flood test species, Pre-emergence, visual evaluation after twelve to sixteen days
[7] = Rate 125 g/ha, Pre-emergence, flood test species, scale 0 to 10 where 0 is no effect and 10 is complete control
[8] = Rate 250 g/ha, Pre-emergence, flood-test species, scale 0 to 10, 0 is no effect, 10 is complete control
[9] = Rate 500 g/ha, listed under Postemergence (flood test species), scale 0 to 10, 0 no effect, 10 complete control
[10] = Rate 500 g/ha, Pre-emergence, flood test species, scale 0 to 10 (0 no effect, 10 complete control)
[11] = Preemergence, Rate 250 g/ha, scale of 0 to 10 where 0 is no effect and 10 is complete control
[12] = Preemergence, Rate 500 g/ha, scale of 0 to 10 where 0 is no effect and 10 is complete control
[13] = Rate 62 g/ha, Postemergence, scale of 0 to 10 where 0 is no effect and 10 is complete control
[14] = Rate 250 g/ha, Postemergence, scale of 0 to 10 where 0 is no effect and 10 is complete control

SMILES: CCC(CC)n1c(=O)on(C(=O)N(c2ccccc2)C(C)C)c1=O [Compound 354]
- Plant response rating, Crabgrass (crabgrass; [1]): 2
- Plant response rating, Crabgrass (crabgrass; [2]): 9
- Crabgrass plant response rating (0 to 10 scale) (crabgrass; Preemergence, Rate 125 g/ha): 9
- Crabgrass plant response rating (crabgrass; Preemergence, Rate 250 g/ha): 9
- Crabgrass plant response rating (crabgrass; Preemergence, Rate 500 g/ha): 10
- Crabgrass plant response rating (crabgrass; Rate 62 g/ha, Postemergence): 0
- Plant response rating, Crabgrass (crabgrass; [3]): 3
- Plant response rating, Cocklebur (cocklebur; [1]): 0
- Plant response rating, Cocklebur (cocklebur; [2]): 0
- Cocklebur plant response rating (0 to 10 scale) (cocklebur; Preemergence, Rate 125 g/ha): 0
- Cocklebur plant response rating (cocklebur; Preemergence, Rate 250 g/ha): 0
- Cocklebur plant response rating (cocklebur; Rate 62 g/ha, Postemergence): 0
- Plant response rating, Cocklebur (cocklebur; [3]): 1
- Plant response rating, Velvetleaf (velvetleaf; [1]): 0
- Plant response rating, Velvetleaf (velvetleaf; [2]): 1
- Velvetleaf plant response rating (0 to 10 scale) (velvetleaf; Preemergence, Rate 125 g/ha): 5
- Velvetleaf plant response rating (velvetleaf; Preemergence, Rate 250 g/ha): 6
- Velvetleaf plant response rating (velvetleaf; Preemergence, Rate 500 g/ha): 7
- Velvetleaf plant response rating (velvetleaf; Rate 62 g/ha, Postemergence): 0
- Plant response rating, Velvetleaf (velvetleaf; [3]): 2
- Plant response rating, Redroot pigweed (pigweed; [1]): 3
- Plant response rating, Redroot pigweed (pigweed; [2]): 5
- Redroot pigweed plant response rating (0 to 10 scale) (pigweed; Preemergence, Rate 125 g/ha): 7
- Redroot pigweed plant response rating (pigweed; Preemergence, Rate 250 g/ha): 10
- Redroot pigweed plant response rating (pigweed; Preemergence, Rate 500 g/ha): 10
- Redroot pigweed plant response rating (pigweed; Rate 62 g/ha, Postemergence): 2
- Plant response rating, Redroot pigweed (pigweed; [3]): 7
- Plant response rating, Bedstraw (bedstraw; Rate 62 g/ha, scale 0 to 10 (0 no effect, 10 complete control)): 0
- Bedstraw plant response rating (0 to 10 scale) (bedstraw; Rate 125 g/ha): 0
- Bedstraw plant response rating (bedstraw; Rate 250 g/ha): 0
- Bedstraw plant response rating (bedstraw; Rate 500 g/ha): 0
- Plant response rating, Soybean (soybean; [1]): 5
- Plant response rating, Soybean (soybean; [2]): 0
- Soybean plant response rating (0 to 10 scale) (soybean; Preemergence, Rate 125 g/ha): 0
- Soybean plant response rating (soybean; Preemergence, Rate 250 g/ha): 0
- Soybean plant response rating (soybean; Preemergence, Rate 500 g/ha): 1
- Soybean plant response rating (soybean; Rate 62 g/ha, Postemergence): 3
- Plant response rating, Soybean (soybean; [3]): 7
- Plant response rating, Rice (rice; [4]): 0
- Rice plant response rating (rice; [5]): 0
- Plant response rating, Rice (0 to 10 scale, 0 is no effect, 10 is complete control) (rice; [6]): 0
- Rice plant response rating (rice; [7]): 0
- Rice plant response rating (rice; [8]): 0
- Plant response rating, Rice (rice; [9]): 2
- Rice plant response rating (rice; [10]): 0
- Plant response rating, Wheat (wheat; [1]): 0
- Plant response rating, Wheat (wheat; [2]): 0
- Wheat plant response rating (0 to 10 scale) (wheat; Preemergence, Rate 125 g/ha): 0
- Wheat plant response rating (wheat; Preemergence, Rate 250 g/ha): 0
- Wheat plant response rating (wheat; Preemergence, Rate 500 g/ha): 2
- Wheat plant response rating (wheat; Rate 62 g/ha, Postemergence): 0
- Plant response rating, Wheat (wheat; [3]): 0
- Plant response rating, Morningglory (morningglory; [1]): 5
- Plant response rating, Morningglory (morningglory; [2]): 0
- Morningglory plant response rating (0 to 10 scale) (morningglory; Preemergence, Rate 125 g/ha): 0
- Morningglory plant response rating (morningglory; Preemergence, Rate 250 g/ha): 0
- Morningglory plant response rating (morningglory; Preemergence, Rate 500 g/ha): 0
- Morningglory plant response rating (morningglory; Rate 62 g/ha, Postemergence): 0
- Plant response rating, Morningglory (morningglory; [3]): 8
- Plant response rating, B. signalgrass (surinam grass; [1]): 0
- Plant response rating, B. signalgrass (surinam grass; [2]): 1
- B. signalgrass plant response rating (0 to 10 scale, 0 is no effect, 10 is complete control) (surinam grass; Preemergence, Rate 125 g/ha): 5
- B. signalgrass plant response rating (surinam grass; [11]): 5
- B. signalgrass plant response rating (surinam grass; [12]): 5
- B. signalgrass plant response rating (surinam grass; [13]): 0
- Plant response rating, B. signalgrass (surinam grass; [14]): 0
- Plant response rating, B. signalgrass (surinam grass; [3]): 2
- Plant response rating, Giant foxtail (giant foxtail; [1]): 4
- Plant response rating, Giant foxtail (giant foxtail; [2]): 10
- Giant foxtail plant response rating (0 to 10 scale) (giant foxtail; Preemergence, Rate 125 g/ha): 10
- Giant foxtail plant response rating (giant foxtail; Preemergence, Rate 250 g/ha): 10
- Giant foxtail plant response rating (giant foxtail; Preemergence, Rate 500 g/ha): 10
- Giant foxtail plant response rating (giant foxtail; Rate 62 g/ha, Postemergence): 0
- Plant response rating, Giant foxtail (giant foxtail; [3]): 9
- Plant response rating, Wild oats (wild oat; [1]): 0
- Plant response rating, Wild oats (wild oat; [2]): 0
- Wild oats plant response rating (0 to 10 scale) (wild oat; Preemergence, Rate 125 g/ha): 4
- Wild oats plant response rating (wild oat; Preemergence, Rate 250 g/ha): 6
- Wild oats plant response rating (wild oat; Preemergence, Rate 500 g/ha): 8
- Wild oats plant response rating (wild oat; Rate 62 g/ha, Postemergence): 0
- Plant response rating, Wild oats (wild oat; [3]): 3
- Plant response rating, Corn (corn; [1]): 0
- Plant response rating, Corn (corn; [2]): 0
- Corn plant response rating (0 to 10 scale) (corn; Preemergence, Rate 125 g/ha): 0
- Corn plant response rating (corn; Preemergence, Rate 250 g/ha): 3
- Corn plant response rating (corn; Preemergence, Rate 500 g/ha): 6
- Corn plant response rating (corn; Rate 62 g/ha, Postemergence): 0
- Plant response rating, Corn (corn; [3]): 0
- Plant response rating, Barnyardgrass (bamyardgrass; [4]): 4
- Barnyardgrass plant response rating (bamyardgrass; [5]): 0
- Plant response rating, Barnyardgrass (0 to 10 scale, 0 is no effect, 10 is complete control) (bamyardgrass; [6]): 0
- Barnyardgrass plant response rating (bamyardgrass; [7]): 0
- Plant response rating, Barnyardgrass (bamyardgrass; Rate 250 g/ha, Postemergence (flood test species), scale of 0 to 10 where 0 is no effect and 10 is complete control): 7
- Barnyardgrass plant response rating (bamyardgrass; [8]): 0
- Plant response rating, Barnyardgrass (bamyardgrass; [9]): 9
- Barnyardgrass plant response rating (bamyardgrass; [10]): 0
- Plant response rating, Blackgrass (blackgrass; [1]): 5
- Plant response rating, Blackgrass (blackgrass; [2]): 3
- Blackgrass plant response rating (0 to 10 scale) (blackgrass; Preemergence, Rate 125 g/ha): 4
- Blackgrass plant response rating (blackgrass; [11]): 8
- Blackgrass plant response rating (blackgrass; [12]): 9
- Blackgrass plant response rating (blackgrass; [13]): 3
- Plant response rating, Blackgrass (blackgrass; [14]): 7
- Plant response rating, Blackgrass (blackgrass; [3]): 9
- Plant response rating, S. Flatsedge (smallflower flatsedge; [4]): 8
- S. Flatsedge plant response rating (smallflower flatsedge; [5]): 5
- Plant response rating, S. Flatsedge (0 to 10 scale, 0 is no effect, 10 is complete control) (smallflower flatsedge; [6]): 0
- S. Flatsedge plant response rating (smallflower flatsedge; [7]): 0
- S. Flatsedge plant response rating (smallflower flatsedge; [8]): 0
- Plant response rating, S. Flatsedge (smallflower flatsedge; [9]): 9
- S. Flatsedge plant response rating (smallflower flatsedge; [10]): 0
